# In patent US11566030B2, “Substituted 2,6-dihydropyrrolo[3,4-c]pyrazoles as pyruvate kinase activators” (priority 2021, dated 2023):
# Where two headings read alike, the source gives them in different places.
# Target: T1, Human pyruvate kinase R (PKR) (Homo sapiens, UniProt P30613)
# T1 construct: Human pyruvate kinase R (PKR), residues 14-574; 6xHis-8xArg-SUMO (N, cleaved yes); host or cells: E. coli
# Experiment: Biochemical assay for activation of pyruvate kinase R (Kinase-Glo luminescence, ATP generation)
# Settings: for Emax: read-out: PKR % activation, maximal activation level achieved with each compound relative to the activation level achieved by AG-348 @ 10 μM
# Protocol: Human pyruvate kinase R (PKR), residues 14-574, and human pyruvate kinase M2, residues 1-531, were cloned into expression plasmids and obtained from ATUM Bio (Newark, Calif.). Proteins were translated as fusions with 6×-His,8×-Arg, and SUMO at the N-terminus. A third construct of human PKR was truncated, residues 50-574, and similarly cloned for use in crystallography experiments. All proteins were cloned, expressed in E. coli, and purified using similar protocols. Cells were grown at 30° C. in Luria-Bertani broth supplemented with 0.4% glucose to OD600=0.8 and induced with 0.4 mM IPTG at 16° C. for 18 hours. Cells were harvested by centrifugation, resuspended in 50 mM potassium phosphate pH 8.0, 500 mM NaCl, 25 mM imidazole pH 8.0, and 3 mM β-mercaptoethanol. Cells were lysed using a LM20 microfluidizer from Microfluidics (Westwood, Mass.). The crude lysate was immediately supplemented with 0.2 mM phenylmethylsulfonyl fluoride (PMSF) and centrifuged at 20,000 g for 20 minutes. The soluble fraction was subsequently incubated with 2 mL Ni-NTA (GE Healthcare) per 1,000 ODs for 1 hour at 4° C. Following incubation with the Ni-NTA resin, lysate was removed by pelleting resin at 2,500 g for 3 minutes and washed 3 times with 9 bed volumes of 50 mM potassium phosphate pH 8.0, 500 mM NaCl, 25 mM imidazole, and 3 mM β-mercaptoethanol. Following the batch wash Ni-NTA resin was loaded onto a gravity column and His-tagged protein was eluted with 6 bed volumes of 10 mM Tris/HCl pH 8.0, 200 mM NaCl, 500 mM imidazole, and 3 mM β-mercaptoethanol. Eluted protein was dialyzed overnight against 10 mM Tris/HCl pH 8.0, 200 mM NaCl, and 1 mM DTT and the 6×-His-8×-Arg-SUMO-tag was cleaved using a 20:1 molar ratio of protein: 3C protease. The protein was purified by anion exchange chromatography on a HiTrapQ or MonoQ 10/100 GL column (GE Healthcare) via a linear NaCl gradient and twice by size exclusion chromatography using a Superdex S200 26/60 column (GE Healthcare) run in 10 mM Tris/HCl pH 8.0, 200 mM NaCl, 10 mM MgCl2, 1 mM DTT. Proteins were concentrated to −12 mg/mL for crystallization and flash frozen for storage.
# Biochemical assay for Activation of Pyruvate Kinase R
# Activation of pyruvate kinase R (PKR) and pyruvate kinase M2 (PKM2) were measured using a luminescence based measurement of ATP generation and the Kinase-Glo luminescent kinase reagent kit.
# [1] = PKR AC50 (nM), 0.1 nM PKR, 0.3 mM ADP, 0.1 mM PEP, 1% DMSO
# T1 sequence (P30613 14-574): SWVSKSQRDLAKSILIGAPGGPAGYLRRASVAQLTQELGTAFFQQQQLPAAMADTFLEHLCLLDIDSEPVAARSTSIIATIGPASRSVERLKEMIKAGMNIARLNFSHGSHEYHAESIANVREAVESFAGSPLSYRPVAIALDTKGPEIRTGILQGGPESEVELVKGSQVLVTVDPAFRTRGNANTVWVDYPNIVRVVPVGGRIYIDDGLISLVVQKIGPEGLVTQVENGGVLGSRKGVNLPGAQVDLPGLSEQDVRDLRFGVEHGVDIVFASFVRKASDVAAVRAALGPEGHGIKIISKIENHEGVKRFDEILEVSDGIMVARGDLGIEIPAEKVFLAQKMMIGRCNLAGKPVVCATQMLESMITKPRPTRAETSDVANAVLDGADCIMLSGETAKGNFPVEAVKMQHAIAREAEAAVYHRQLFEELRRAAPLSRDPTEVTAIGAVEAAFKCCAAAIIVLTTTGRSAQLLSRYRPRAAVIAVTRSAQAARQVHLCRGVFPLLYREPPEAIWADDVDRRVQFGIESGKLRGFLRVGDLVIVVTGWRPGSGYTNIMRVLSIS
SMILES,AC50 [1],Emax,AC50
"O=C([C@H](CO)c1ccccc1)N1Cc2cn(S(=O)(=O)c3csc(C(F)(F)F)c3)nc2C1 [Compound 117, (2S)-3-hydroxy-2-phenyl-1-(2-{[5-(trifluoromethyl)thiophen-3-yl]sulfonyl}-2H,4H,5H,6H-pyrrolo[3,4-c]pyrazol-5-yl)propan-1-one]",22 nM,35%,–
"COc1nc(C)c(S(=O)(=O)n2cc3c(n2)CN(C(=O)[C@H](CO)c2ccccc2F)C3)s1 [Compound 23, (2S)-2-(2-fluorophenyl)-3-hydroxy-1-{2-[(2-methoxy-4-methyl-1,3-thiazol-5-yl)sulfonyl]-2H,4H,5H,6H-pyrrolo[3,4-c]pyrazol-5-yl}propan-1-one]",–,30%,8.6 nM
"CCc1ccccc1[C@@H](CO)C(=O)N1Cc2cn(S(=O)(=O)c3cnn(CC(F)F)c3)nc2C1 [Compound 105, (S)-1-(2-((1-(2,2-difluoroethyl)-1H-pyrazol-4-yl)sulfonyl)-2,6-dihydropyrrolo[3,4-c]pyrazol-5(4H)-yl)-2-(2-ethylphenyl)-3-hydroxypropan-1-one]",74 nM,67%,–
"C[C@H](O)[C@@H](C(=O)N1Cc2cn(S(=O)(=O)c3cnn(CC(F)F)c3)nc2C1)c1ccccc1 [Compound 6, (2S,3S)-1-(2-{[1-(2,2-difluoroethyl)-1H-pyrazol-4-yl]sulfonyl}-2H,4H,5H,6H-pyrrolo[3,4-c]pyrazol-5-yl)-3-hydroxy-2-phenylbutan-1-one]",–,86%,11 nM
"O=C([C@@H](CO)c1ncccc1F)N1Cc2cn(S(=O)(=O)c3cnn(CC(F)F)c3)nc2C1 (single isomer, unassigned) [Compound 43]",29 nM,108%,–
"Cc1cn(CC(F)F)nc1S(=O)(=O)n1cc2c(n1)CN(C(=O)[C@H](CO)c1ccccc1Cl)C2 [Compound 80, (2S)-2-(2-chlorophenyl)-1-(2-{[1-(2,2-difluoroethyl)-4-methyl-1H-pyrazol-3-yl]sulfonyl}-2H,4H,5H,6H-pyrrolo[3,4-c]pyrazol-5-yl)-3-hydroxypropan-1-one]",–,73%,8.9 nM
"C[C@@](CO)(C(=O)N1Cc2cn(S(=O)(=O)c3cnn(CC(F)F)c3)nc2C1)c1ccccn1 (single isomer, unassigned) [Compound 123]",> 10000 nM,123%,–
"O=C([C@@H](CO)c1ncccc1F)N1Cc2cn(S(=O)(=O)c3ccn(CC(F)F)n3)nc2C1 (single isomer, unassigned) [Compound 32]",–,114%,40 nM
"O=C([C@H](CO)c1ccccc1Cl)N1Cc2cn(S(=O)(=O)c3cnn(CCF)c3)nc2C1 [Compound 90, (2S)-2-(2-chlorophenyl)-1-{2-[1-(2-fluoroethyl)pyrazol-4-ylsulfonyl]-4H,6H-pyrrolo[3,4-c]pyrazol-5-yl}-3-hydroxypropan-1-one]",5.7 nM,131%,–
"O=C([C@@H](CO)c1ccccc1Cl)N1Cc2cn(S(=O)(=O)c3ncn(CC(F)F)n3)nc2C1 [Compound 108, (2R)-2-(2-chlorophenyl)-1-{2-[1-(2,2-difluoroethyl)-1,2,4-triazol-3-ylsulfonyl]-4H,6H-pyrrolo[3,4-c]pyrazol-5-yl}-3-hydroxypropan-1-one]",3300 nM,62%,–
"O=C([C@H](CO)c1ccccc1Cl)N1Cc2cn(S(=O)(=O)c3cnn(CC(F)F)c3)nc2C1 [Compound 9, (2S)-2-(2-chlorophenyl)-1-[2-[1-(2,2-difluoroethyl)pyrazol-4-ylsulfonyl]-4H,6H-pyrrolo[3,4-c]pyrazol-5-yl]-3-hydroxypropan-1-one]",–,126%,3 nM
"Cc1cn(CC(F)(F)F)nc1S(=O)(=O)n1cc2c(n1)CN(C(=O)[C@@H](CO)c1ccccc1)C2 [Compound 67, (2R)-3-hydroxy-1-{2-[4-methyl-1-(2,2,2-trifluoroethyl)pyrazol-3-ylsulfonyl]-4H,6H-pyrrolo[3,4-c]pyrazol-5-yl}-2-phenylpropan-1-one]",–,0%,–
"O=C([C@@H](CO)c1ccccc1Cl)N1Cc2cn(S(=O)(=O)c3cnn(CC(F)F)c3)nc2C1 [Compound 46, (R)-2-(2-chlorophenyl)-1-(2-((1-(2,2-difluoroethyl)-1H-pyrazol-4-yl)sulfonyl)-2,6-dihydropyrrolo[3,4-c]pyrazol-5(4H)-yl)-3-hydroxypropan-1-one]",–,191%,150 nM
"O=C([C@H](O)c1ccccc1F)N1Cc2cn(S(=O)(=O)c3cnn(CC(F)(F)F)c3)nc2C1 (single isomer, unassigned) [Compound 40]",81 nM,53%,–
"O=C([C@H](CO)c1ccccc1)N1Cc2cn(S(=O)(=O)c3ccn(CC(F)F)n3)nc2C1 [Compound 72, (2S)-1-{2-[1-(2,2-difluoroethyl)pyrazol-3-ylsulfonyl]-4H,6H-pyrrolo[3,4-c]pyrazol-5-yl}-3-hydroxy-2-phenylpropan-1-one]",–,98%,9.6 nM
"Cc1noc(C)c1S(=O)(=O)n1cc2c(n1)CN(C(=O)[C@H](CO)c1ccccc1)C2 [Compound 16, (2S)-1-{2-[(3,5-dimethyl-1,2-oxazol-4-yl)sulfonyl]-2H,4H,5H,6H-pyrrolo[3,4-c]pyrazol-5-yl}-3-hydroxy-2-phenylpropan-1-one]",1000 nM,55%,–
"Cc1cn(CC(F)(F)F)nc1S(=O)(=O)n1cc2c(n1)CN(C(=O)[C@H](CO)c1ccccc1Cl)C2 [Compound 70, (2S)-2-(2-chlorophenyl)-3-hydroxy-1-{2-[4-methyl-1-(2,2,2-trifluoroethyl)pyrazol-3-ylsulfonyl]-4H,6H-pyrrolo[3,4-c]pyrazol-5-yl}propan-1-one]",82 nM,36%,–
"COc1ccccc1[C@@H](CO)C(=O)N1Cc2cn(S(=O)(=O)c3cnn(CC(F)F)c3)nc2C1 [Compound 120, (2S)-1-{2-[1-(2,2-difluoroethyl)pyrazol-4-ylsulfonyl]-4H,6H-pyrrolo[3,4-c]pyrazol-5-yl}-3-hydroxy-2-(2-methoxyphenyl)propan-1-one]",–,102%,16 nM
"O=C([C@@H](CO)c1ccccc1)N1Cc2cn(S(=O)(=O)c3cnn(CC(F)(F)F)c3)nc2C1 [Compound 84, (2R)-3-hydroxy-2-phenyl-1-{2-[1-(2,2,2-trifluoroethyl)pyrazol-4-ylsulfonyl]-4H,6H-pyrrolo[3,4-c]pyrazol-5-yl}propan-1-one]",–,73%,2500 nM
"O=C([C@H](CO)c1cccc(F)c1Cl)N1Cc2cn(S(=O)(=O)c3cnn(CC(F)F)c3)nc2C1 [Compound 55, (2S)-2-(2-chloro-3-fluorophenyl)-1-{2-[1-(2,2-difluoroethyl)pyrazol-4-ylsulfonyl]-4H,6H-pyrrolo[3,4-c]pyrazol-5-yl}-3-hydroxypropan-1-one]",–,98%,5.1 nM
"Cc1c(S(=O)(=O)n2cc3c(n2)CN(C(=O)[C@@H](CO)c2ccccc2Cl)C3)cnn1CCF [Compound 99, (2R)-2-(2-chlorophenyl)-1-{2-[1-(2-fluoroethyl)-5-methylpyrazol-4-ylsulfonyl]-4H,6H-pyrrolo[3,4-c]pyrazol-5-yl}-3-hydroxypropan-1-one]",410 nM,100%,–
"COc1ccccc1[C@H](CO)C(=O)N1Cc2cn(S(=O)(=O)c3cnn(CC(F)F)c3)nc2C1 [Compound 121, (2R)-1-{2-[1-(2,2-difluoroethyl)pyrazol-4-ylsulfonyl]-4H,6H-pyrrolo[3,4-c]pyrazol-5-yl}-3-hydroxy-2-(2-methoxyphenyl)propan-1-one]",–,166%,98 nM
"O=C([C@H](CO)c1ccccc1OCCO)N1Cc2cn(S(=O)(=O)c3cnn(CC(F)F)c3)nc2C1 (single isomer, unassigned) [Compound 109]",–,63%,26 nM
"O=C([C@@H](CO)c1cccc(F)c1F)N1Cc2cn(S(=O)(=O)c3cnn(CC(F)F)c3)nc2C1 [Compound 54, (2R)-1-{2-[1-(2,2-difluoroethyl)pyrazol-4-ylsulfonyl]-4H,6H-pyrrolo[3,4-c]pyrazol-5-yl}-2-(2,3-difluorophenyl)-3-hydroxypropan-1-one]",260 nM,108%,–
